Data set [1] has as its system Trypanosoma cruzi. As to the kind of experiment: microbe, parasite or virus in culture. In kind it is functional, organism-based, Tulahuen LacZ, Clone C4.
The nature of data set [2]: DNDI: Cytotoxicity against L-6 rat myoblasts from skeletal muscle cells. The conditions noted are these: L6 rat skeletal muscle myoblast cells.
Data set [3] deals with Trypanosoma cruzi. The data set can be described thus: microbe, parasite or virus in culture. In kind it is functional, Tulahuen LacZ, Clone C4.
The mark [4] stands for this setting: Trypanosoma cruzi, Tulahuen LacZ, Clone C4.

Each structure is given as a SMILES string. pIC50: −log10 of the molar value. Where “and” joins values, the source holds several entries; their conditions need not be identical. Equal entries are not always repeated.

For `Cc1ccccc1C(O)(c1ccc(Cl)cc1)c1cccnc1` (centres undefined), the pIC50 (as a rule, the negative decadic logarithm of the IC50, by convention in mol/L) was 6.43 in data set [1] (setting [4]) and 4.21 in data set [2]. Also, the 90% effect level in data set [3] (setting [4]) (IC90) was put at 2.78 µM.
Regarding `CC(C)CC(O)(c1ccc(Cl)cc1)c1cncnc1` (centres undefined), the figures for the pIC50 in data set [1] (setting [4]) and in data set [2] (IC50) were 5.94 and less than 4.00, respectively. Further, the IC90 (usually the concentration at which the effect reaches the 90% level) in data set [3] (setting [4]) was determined as 10 µM.
For `CON=C(Cc1ccccc1)c1ccc(Cl)cc1`, in that order: less than 5.00, 4.15 and greater than 10 µM.
For `OC(c1ccc(Cl)cc1)(c1ncccn1)c1ccccc1Cl` (centres undefined), in that order: 4.64, less than 4.00 and 66 µM.
For `OC(c1ccc(C(F)(F)F)cc1)(c1cncnc1)c1ccccc1Cl` (centres undefined) the same measures were 6.60, less than 4.00 and 20 µM.
As to `OC(c1ccc(C(F)(F)F)cc1)(c1ccc(C(F)(F)F)cc1)c1cc2ccccc2[nH]1`, the pIC50 is 5.40 in data set [1] (setting [4]) and 4.94 in data set [2] (IC50). Further, the IC90 in data set [3] (setting [4]) amounted to 7.59 µM.
For `OC(c1cccnc1)(c1cccs1)c1ccccc1Cl` (centres undefined), in that order: 6.46, less than 4.00 and 0.67 µM.
For `OC(c1ccc(Cl)cc1)(c1cccnc1)c1nccs1` (centres undefined), in that order: 6.70, less than 4.00 and 0.505 µM.
For `FC(c1ccc(Cl)cc1)(c1cccnc1)c1ccccc1Cl` (centres undefined) the same measures were 6.77, 4.22 and 1 µM.
For `OC(c1ccc(Cl)cc1)(c1ccncn1)c1ccccc1Cl` (centres undefined), the pIC50 in data set [1] (setting [4]) is 5.15; in data set [2] it was less than 4.00. For the same compound, the IC90 in data set [3] (setting [4]) turned out to be 8.57 µM.
With `CCCC=C(c1ccc(Cl)cc1)c1cccnc1`, the pIC50 in data set [1] (setting [4]) is 7.12; in data set [2] (IC50), 4.10. In addition, the 90% effect concentration (IC90) in data set [3] (setting [4]) stood at 0.38 µM.
For `Cc1cccc(C(O)(c2ccc(Cl)cc2)c2cncnc2)c1` (centres undefined), in that order: 6.48, 4.17 and 5.23 µM.
For `OC(c1ccc(Cl)cc1)(c1cncnc1)c1cccs1` (centres undefined) the same measures were 7.15, less than 4.00 and 76 µM.
For `CCCCC(O)(c1ccc(Cl)cc1)c1cnccn1` (centres undefined) the same measures were 6.48, less than 4.00 and 3 µM.
On to `Cc1noc(C)c1C(=O)N1CCC(NC(c2ccc(C(F)(F)F)cc2)c2cccnc2)CC1` (centres undefined), for which the pIC50 was 7.44 in data set [1], 7.70 in data set [1] (setting [4]) and less than 4.00 in data set [2] (IC50). Further, the 90% effect concentration (IC90) in data set [3] was 0.046 µM and 0.096 µM.
`CCCCc1ccc(C(O)(c2ccc(Cl)cc2)c2ccc(Cl)cc2)cn1`: the negative-log IC50 (pIC50) in data set [1] (setting [4]) is less than 6.00; in data set [2] (IC50) it was 4.26. In data set [3] (setting [4]), the IC90 was greater than 1 µM.
`OC(c1ccc(Cl)cc1)(c1cccnc1)c1ccsc1` (centres undefined): the pIC50 in data set [1] (setting [4]) was 7.11; in data set [2] (IC50), less than 4.00. It took 0.154 µM to reach the 90% level in data set [3] (setting [4]) (IC90).
For `O=C(c1ccc(Cl)cc1)c1ccccc1Cl`, in that order: less than 5.00, less than 4.00 and 10 µM.
With `OC(c1cccnc1)(c1cccc(C(F)(F)F)c1)c1ccccc1Cl` (centres undefined), the results for the pIC50 in data set [1] (setting [4]) and in data set [2] were 6.35 and 4.24, respectively. The compound also displayed an IC90 in data set [3] (setting [4]) of 0.749 µM.
On to `OC(c1cncnc1)(c1ccccn1)c1ccccc1Cl` (centres undefined), for which the results for the pIC50 in data set [1] (setting [4]) and in data set [2] (IC50) were 5.13 and less than 4.00, respectively. Moreover, the IC90 in data set [3] (setting [4]) was 15.5 µM.
For `O=C(c1ccc(F)cc1)c1ccc(Cl)cc1` the same measures were less than 5.00, less than 4.00 and 10 µM.
For `Cn1cccc1C(O)(c1ccc(Cl)cc1)c1ccc(Cl)cc1`, in that order: less than 5.00, 4.25 and greater than 10 µM.
For `CON=C(c1ccc(Cl)cc1)c1ccc(Cl)cc1`, in that order: less than 5.00, less than 4.00 and 10 µM.
Take `CON=C(Cc1ccccc1)c1cccnc1`: the results for the pIC50 in data set [1] (setting [4]) and in data set [2] (IC50) were less than 6.00 and less than 4.00, respectively. In addition, the IC90 in data set [3] (setting [4]) is greater than 1 µM.
With `OC(c1cncnc1)(c1ccccc1F)c1ccccc1Cl` (centres undefined), the pIC50 in data set [1] (setting [4]) is 5.58; in data set [2] (IC50) it was less than 4.00. Further, in data set [3] (setting [4]), the IC90 was 9.37 µM.
For `CC(C)CNC(c1ccc(Cl)cc1)c1cccnc1` (centres undefined), in that order: 6.70, less than 4.00 and 0.43 µM.
For `Cc1ccsc1C(O)(c1ccc(Cl)cc1)c1ccc(Cl)cc1` the same measures were less than 5.00, 4.23 and greater than 10 µM.
Consider `OC(c1ccc(Cl)cc1)(c1ccc(Cl)cc1)c1cc(-c2ccccc2)on1`, for which the pIC50 in data set [1] (setting [4]) is less than 5.00; in data set [2] (IC50) it was 4.27. The compound further gave an IC90 in data set [3] (setting [4]) greater than 10 µM.
For `OC(c1ccc(Cl)cc1)(c1cccnc1)c1cncnc1` (centres undefined), in that order: 5.82, less than 4.00 and 59 µM.
For `COc1ccc(C(O)(c2cncnc2)c2ccccc2Cl)cc1` (centres undefined), in that order: 6.41, 4.15 and 60 µM.
For `Nc1nccnc1C(O)(c1ccc(Cl)cc1)c1ccc(Cl)cc1` the same measures were less than 5.00, 4.20 and greater than 10 µM.
As for `CC(C)CC(O)(c1ccc(Cl)cc1)c1cnccn1` (centres undefined), the pIC50 was 6.86 in data set [1] (setting [4]) and less than 4.00 in data set [2] (IC50). The compound also registered an IC90 in data set [3] (setting [4]) of 0.337 µM.
Turning to `OC(c1ccc(Cl)cc1)(c1cccnc1)c1c(F)cccc1Cl` (centres undefined), the figures for the pIC50 in data set [1] (setting [4]) and in data set [2] were 6.76 and 4.17, respectively. For the same compound, the IC90 in data set [3] (setting [4]) was determined as 0.469 µM.
Take `OC(CC1CCCCC1)(c1ccc(Cl)cc1)c1cncnc1` (centres undefined): the pIC50 in data set [1] (setting [4]) was 6.81; in data set [2] (IC50) it was 4.19. Moreover, the IC90 in data set [3] (setting [4]) was 0.368 µM.
As to `N#Cc1ccc(C(c2cccnc2)N2CCC(NC(=O)c3ccccc3C(F)(F)F)CC2)cc1` (centres undefined), the pIC50 in data set [1] is 8.40; in data set [1] (setting [4]), 8.35; in data set [2] (IC50), less than 4.00. The IC90 in data set [3] worked out at 0.0155 µM; in data set [3] (setting [4]), 0.012 µM.
As to `OC(c1ccc(Cl)cc1)(c1cncnc1)c1ccccc1F` (centres undefined), the pIC50 in data set [1] (setting [4]) was 6.85; in data set [2] (IC50), less than 4.00. Besides, the 90% effect level in data set [3] (setting [4]) (IC90) was put at 0.82 µM.
`N#Cc1ccc(C(c2cccnc2)N2CCC(NC(=O)c3c(F)cccc3F)CC2)cc1` (centres undefined): the values for the pIC50 in data set [1], in data set [1] (setting [4]) and in data set [2] (IC50) were 7.73, 7.67 and less than 4.00, respectively. The IC90 in data set [3] stood at 0.0555 µM; in data set [3] (setting [4]) it was 0.048 µM.
Consider `CON=C(C)c1cccnc1`, for which the pIC50 in data set [1] (setting [4]) was less than 5.00; in data set [2] it was less than 4.00. In data set [3] (setting [4]), this compound gave an IC90 greater than 10 µM.
For `OC(c1ccc(Cl)cc1)(c1cccnc1)c1ccc(Cl)cc1Cl` (centres undefined) the same measures were 7.82, 4.27 and 0.0522 µM.
In the case of `OC(c1cccnc1)(c1cncnc1)c1ccccc1Cl` (centres undefined), the pIC50 in data set [1] (setting [4]) is 5.11; in data set [2] (IC50) it was less than 4.00. For the same compound, the 90% effect level in data set [3] (setting [4]) (IC90) was put at 10 µM.
For `CCCCOC(c1ccc(Cl)cc1)c1cccnc1` (centres undefined) the same measures were 6.91, 4.20 and 0.296 µM.
For `OC(c1ccc(Cl)cc1)(c1ccc(Cl)cc1)c1ccco1` the same measures were less than 5.00, 4.32 and greater than 10 µM.
As to `CCCCC(O)(c1ccc(Cl)cc1)c1cncnc1` (centres undefined), the figures for the pIC50 in data set [1] (setting [4]) and in data set [2] (IC50) were 6.30 and less than 4.00, respectively. In data set [3] (setting [4]), this compound came in with an IC90 of 1.89 µM.
For `OC(c1ccccc1)(c1cncnc1)c1ccccc1Cl` (centres undefined), in that order: 5.60, less than 4.00 and 70 µM.
Take `OC(c1cccnc1)(c1ccsc1)c1ccccc1Cl` (centres undefined): the pIC50 was 6.29 in data set [1] (setting [4]) and less than 4.00 in data set [2] (IC50). The same compound yielded an IC90 in data set [3] (setting [4]) of 0.875 µM.
For `O/N=C(\c1ccc(Cl)cc1)c1ccccc1Cl`, in that order: 4.33, 4.26 and 93 µM.
As to `Cc1cc(C(=O)NC2CCN(C(c3ccc(C#N)cc3)c3cccnc3)CC2)n(C)n1` (centres undefined), the pIC50 is 7.33 in data set [1], 7.24 in data set [1] (setting [4]) and less than 4.00 in data set [2] (IC50). The IC90 in data set [3] was found to be 0.0975 µM; in data set [3] (setting [4]) it was 0.131 µM.
For the compound `Cc1ccc(C(O)(c2ccc(Cl)cc2)c2cccnc2)s1` (centres undefined), the figures for the negative logarithm of the IC50 (pIC50) in data set [1] (setting [4]) and in data set [2] (IC50) were 7.62 and less than 4.00, respectively. Moreover, the IC90 in data set [3] (setting [4]) turned out to be 0.067 µM.
Take `OC(c1ccc(Cl)cc1)(c1ccccn1)c1ccccc1Cl` (centres undefined): the pIC50 in data set [1] (setting [4]) was 4.56; in data set [2], less than 4.00. This compound registered an IC90 in data set [3] (setting [4]) of 90 µM.
On to `CCCCC(O)(c1ccc(Cl)cc1)c1cccnc1` (centres undefined), for which the pIC50 in data set [1] (setting [4]) was 7.54; in data set [2] (IC50) it was 4.22. For the same compound, the concentration for an effect of 90% (IC90) in data set [3] (setting [4]) is 0.103 µM.
For `Clc1ccc(C(c2cncnc2)c2ccccc2Cl)cc1` (centres undefined), in that order: 5.97, less than 4.00 and 80 µM.
For `COc1ccccc1C(O)(c1ccc(Cl)cc1)c1cncnc1` (centres undefined) the same measures were 5.94, less than 4.00 and 8.7 µM.
For `OC(c1ccc(Cl)cc1)(c1cccnc1)c1sccc1Cl` (centres undefined) the same measures were 7.55, 4.15 and 0.072 µM.
Take `Clc1ccc(C(NCCN2CCOCC2)(c2cccnc2)c2ccccc2Cl)cc1` (centres undefined): the figures for the pIC50 in data set [1] (setting [4]) and in data set [2] (IC50) were 6.18 and 4.25, respectively. The IC90 in data set [3] (setting [4]) came out at 6.23 µM.
In the case of `OC(c1ccc(Cl)cc1)(c1cnccn1)c1ccccc1Cl` (centres undefined), the pIC50 in data set [1] (setting [4]) was 6.36; in data set [2] (IC50) it was less than 4.00. Moreover, in data set [3] (setting [4]), the 90% effect level (IC90) was put at 7.9 µM.
Regarding `COc1ccc(C(O)(c2cncnc2)C2CC2)cc1` (centres undefined), the figures for the pIC50 in data set [1] (setting [4]) and in data set [2] were 4.68 and less than 4.00, respectively. In data set [3] (setting [4]), this compound had an IC90 of 62.5 µM.
Consider `OC(c1ccc(Cl)cc1)(c1cncnc1)c1cccc(F)c1` (centres undefined), for which the values for the pIC50 in data set [1] (setting [4]) and in data set [2] (IC50) were 6.08 and less than 4.00, respectively. The compound further gave an IC90 in data set [3] (setting [4]) of 1.9 µM.
For `OC(c1ccc(Cl)cc1)(c1cncnc1)c1cccc(Cl)c1` (centres undefined), in that order: 6.29, 4.24 and 10 µM.
On to `CC(C)C(O)(c1ccc(Cl)cc1)c1cncnc1` (centres undefined), for which the pIC50 in data set [1] (setting [4]) is 5.65; in data set [2] (IC50), less than 4.00. The 90% effect level in data set [3] (setting [4]) (IC90) was put at 21 µM.

The values are drawn from ChEMBL document CHEMBL1862790, “Optimisation of fenarimol series for the treatment of Chagas disease”.
